Reference: the NIST ThermoML archive (doi:10.1021/acs.jced.8b00132)
Several values for one entry are separate records, joined by “and”; a condition that tells them apart may be missing. Equal entries are not always repeated. ± gives the expanded uncertainty stated by the source.

Conditions: Liquid, transient hot wire

O=C(C(F)(F)C(F)(F)F)C(F)(C(F)(F)F)C(F)(F)F [dodecafluoro-2-methylpentan-3-one]
Conditions | thermal conductivity
191.65 K, 61123 kPa | 0.08784 ± 0.0018 W/m/K
191.65 K, 67633 kPa | 0.08918 ± 0.0018 W/m/K
191.65 K, 67642 kPa | 0.08859 ± 0.0018 W/m/K
191.66 K, 154 kPa | 0.07783 ± 0.0016 W/m/K
191.66 K, 6412 kPa | 0.07892 ± 0.0016 W/m/K
191.66 K, 6427 kPa | 0.07902 ± 0.0016 W/m/K
191.66 K, 13243 kPa | 0.0804 ± 0.0016 W/m/K
191.66 K, 13255 kPa | 0.08025 ± 0.0016 W/m/K
191.66 K, 20239 kPa | 0.08175 ± 0.0017 W/m/K
191.66 K, 20246 kPa | 0.08164 ± 0.0017 W/m/K
191.67 K, 112 kPa | 0.07744 ± 0.0016 W/m/K
191.67 K, 147 kPa | 0.07786 ± 0.0016 W/m/K
191.67 K, 6032 kPa | 0.07883 ± 0.0016 W/m/K
191.67 K, 9411 kPa | 0.07946 ± 0.0016 W/m/K
191.67 K, 9418 kPa | 0.07986 ± 0.0016 W/m/K
191.68 K, 121 kPa | 0.07734 ± 0.0016 W/m/K
191.68 K, 6013 kPa | 0.07908 ± 0.0016 W/m/K
192 K, 28272 kPa | 0.08275 ± 0.0017 W/m/K
192 K, 36150 kPa | 0.084 ± 0.0017 W/m/K
192 K, 36164 kPa | 0.08417 ± 0.0017 W/m/K
192 K, 44217 kPa | 0.08526 ± 0.0018 W/m/K
192 K, 52622 kPa | 0.08646 ± 0.0018 W/m/K
192 K, 52639 kPa | 0.08637 ± 0.0018 W/m/K
192 K, 61093 kPa | 0.08779 ± 0.0018 W/m/K
192 K, 67605 kPa | 0.08855 ± 0.0018 W/m/K
192.01 K, 28268 kPa | 0.08282 ± 0.0017 W/m/K
192.01 K, 44219 kPa | 0.08526 ± 0.0018 W/m/K
192.01 K, 61086 kPa | 0.08772 ± 0.0018 W/m/K
192.01 K, 67622 kPa | 0.08858 ± 0.0018 W/m/K
192.04 K, 6436 kPa | 0.07895 ± 0.0016 W/m/K
192.04 K, 13246 kPa | 0.08024 ± 0.0016 W/m/K
192.04 K, 13262 kPa | 0.08043 ± 0.0016 W/m/K
192.04 K, 20234 kPa | 0.08155 ± 0.0017 W/m/K
192.05 K, 6439 kPa | 0.07899 ± 0.0016 W/m/K
192.05 K, 20236 kPa | 0.0816 ± 0.0017 W/m/K
192.06 K, 157 kPa | 0.07749 ± 0.0016 W/m/K
192.06 K, 162 kPa | 0.07742 ± 0.0016 W/m/K
192.06 K, 9415 kPa | 0.07961 ± 0.0016 W/m/K
192.06 K, 9425 kPa | 0.07956 ± 0.0016 W/m/K
192.07 K, 124 kPa | 0.07716 ± 0.0016 W/m/K
192.07 K, 6029 kPa | 0.07889 ± 0.0016 W/m/K
192.07 K, 6037 kPa | 0.07899 ± 0.0016 W/m/K
192.08 K, 123 kPa | 0.07723 ± 0.0016 W/m/K
192.39 K, 61059 kPa | 0.08761 ± 0.0018 W/m/K
192.39 K, 67589 kPa | 0.08872 ± 0.0018 W/m/K
192.4 K, 44218 kPa | 0.08528 ± 0.0018 W/m/K
192.4 K, 52626 kPa | 0.08558 ± 0.0018 W/m/K
192.4 K, 61080 kPa | 0.08772 ± 0.0018 W/m/K
192.4 K, 67603 kPa | 0.08923 ± 0.0018 W/m/K
192.41 K, 28286 kPa | 0.08272 ± 0.0017 W/m/K
192.41 K, 36171 kPa | 0.08404 ± 0.0017 W/m/K
192.41 K, 44213 kPa | 0.08463 ± 0.0017 W/m/K
192.41 K, 52617 kPa | 0.08563 ± 0.0018 W/m/K
192.42 K, 28275 kPa | 0.08201 ± 0.0017 W/m/K
192.42 K, 36146 kPa | 0.08395 ± 0.0017 W/m/K
192.45 K, 20243 kPa | 0.08132 ± 0.0017 W/m/K
192.46 K, 20239 kPa | 0.08136 ± 0.0017 W/m/K
192.47 K, 13253 kPa | 0.08039 ± 0.0016 W/m/K
192.47 K, 13262 kPa | 0.08013 ± 0.0016 W/m/K
192.48 K, 6426 kPa | 0.07848 ± 0.0016 W/m/K
192.48 K, 6434 kPa | 0.07874 ± 0.0016 W/m/K
192.49 K, 9414 kPa | 0.0792 ± 0.0016 W/m/K
192.5 K, 157 kPa | 0.07741 ± 0.0016 W/m/K
192.5 K, 161 kPa | 0.07715 ± 0.0016 W/m/K
192.5 K, 6046 kPa | 0.07875 ± 0.0016 W/m/K and 0.07884 ± 0.0016 W/m/K
192.5 K, 9410 kPa | 0.07887 ± 0.0016 W/m/K
192.51 K, 147 kPa | 0.0771 ± 0.0016 W/m/K
192.52 K, 131 kPa | 0.07714 ± 0.0016 W/m/K
192.82 K, 67573 kPa | 0.08822 ± 0.0018 W/m/K
192.82 K, 67584 kPa | 0.08836 ± 0.0018 W/m/K
192.83 K, 52603 kPa | 0.08551 ± 0.0018 W/m/K
192.83 K, 61059 kPa | 0.08671 ± 0.0018 W/m/K
192.83 K, 61067 kPa | 0.08703 ± 0.0018 W/m/K
192.84 K, 44211 kPa | 0.08516 ± 0.0018 W/m/K
192.84 K, 52611 kPa | 0.08588 ± 0.0018 W/m/K
192.85 K, 44221 kPa | 0.08537 ± 0.0018 W/m/K
192.86 K, 36164 kPa | 0.08389 ± 0.0017 W/m/K and 0.08381 ± 0.0017 W/m/K
192.87 K, 28295 kPa | 0.08266 ± 0.0017 W/m/K
192.87 K, 28317 kPa | 0.08252 ± 0.0017 W/m/K
192.92 K, 20232 kPa | 0.08125 ± 0.0017 W/m/K
192.92 K, 20252 kPa | 0.08125 ± 0.0017 W/m/K
192.94 K, 13254 kPa | 0.08003 ± 0.0016 W/m/K
192.96 K, 6419 kPa | 0.07805 ± 0.0016 W/m/K
192.96 K, 6437 kPa | 0.07805 ± 0.0016 W/m/K
